Data reported in PMC10285291, “The impact of CYP2C19 genotype on phenoconversion by concomitant medication” (Frontiers in Pharmacology, 2023).

Legend:
[1] = molecular target: T1, CYP2C19 (Homo sapiens, UniProt P33261); experiment: S-mephenytoin […]'-hydroxylation inhibition in individual human liver microsomes at […] fluvoxamine, LC-MS/MS; type: cell-based; design: human liver microsomes
[2] = molecular target: T1, CYP2C19; experiment: in vitro; conditions: microsomes

T1 sequence (P33261 whole entry): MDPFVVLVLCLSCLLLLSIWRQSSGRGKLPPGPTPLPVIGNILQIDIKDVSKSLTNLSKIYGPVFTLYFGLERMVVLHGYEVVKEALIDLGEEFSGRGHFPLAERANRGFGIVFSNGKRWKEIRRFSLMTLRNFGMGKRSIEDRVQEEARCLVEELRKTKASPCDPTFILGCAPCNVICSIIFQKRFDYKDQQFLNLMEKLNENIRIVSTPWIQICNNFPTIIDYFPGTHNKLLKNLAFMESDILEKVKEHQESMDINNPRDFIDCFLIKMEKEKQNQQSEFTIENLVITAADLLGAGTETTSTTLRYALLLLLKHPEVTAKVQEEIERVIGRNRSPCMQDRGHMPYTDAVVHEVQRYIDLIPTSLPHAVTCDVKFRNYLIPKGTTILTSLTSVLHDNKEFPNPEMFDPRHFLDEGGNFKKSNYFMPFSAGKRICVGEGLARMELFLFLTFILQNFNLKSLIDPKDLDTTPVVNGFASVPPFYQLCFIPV

| Compound | inhibition at 1 µM [1] | KI (inactivation) [2] |
| --- | --- | --- |
| COCCCC/C(=N\OCCN)c1ccc(C(F)(F)F)cc1 [fluvoxamine] | 85% | – |
| COc1ccc2[nH]c([S+]([O-])Cc3ncc(C)c(OC)c3C)nc2c1 (centres unmarked) [omeprazole] | – | 4.47 ± 1.8 µM |
